{"source": "patent US8173693B2", "about": "“Benzenesulfonamide derivatives and pharmaceutical composition thereof” (Purzer Pharmaceutical Co., Ltd., priority 2010, dated 2012)", "type_in_all_cases": "cell-based", "key": {"[1]": {"tested_on": "Human colorectal adenocarcinoma HT-29 cells", "experiment": "SRB assay", "conditions": "48 hr"}, "[2]": {"tested_on": "Human breast carcinoma MCF-7 cells", "experiment": "SRB assay", "conditions": "MCF7, 48 hr"}, "[3]": {"tested_on": "lung carcinoma A549 cells", "experiment": "SRB assay", "conditions": "Homo sapiens, 48 hr"}, "[4]": {"tested_on": "human nasopharyngeal carcinoma KB cells", "experiment": "MTT assay", "method": "(§1) Human Bladder Cancer TSGH cells, Human hepatoblastoma HepG2 cells, Human colorectal adenocarcinoma HT-29 cells, human nasopharyngeal carcinoma KB cells, Human gastric adenocarcinoma AGS cells, Human breast carcinoma MCF-7 cells, lung carcinoma A549 cells, and Human prostate carcinoma PC-3 cells were used in the preliminary cytotoxicity assays of the benzenesulfonamide derivatives of the present invention, and the inhibition activity against the tumor cells was evaluated.\n(§2) All cell lines were maintained in RPMI 1640 supplied with 10% fetal bovine serum and maintained in a humidified chamber at 37° C. containing 5% CO2. Then, all cell lines were treated with compounds for 72 hr and subsequently incubated with 0.4 mg/mL of MTT at 37° C. for 2 hr. The medium was removed, and DMSO was added to dissolve MTT precipitate. Cell proliferation was determined by measuring the optical density at 540 nm using a Thermomax microplate reader (Molecular Devices, Sunnyvale, Calif.), and the IC50 values of the benzenesulfonamide derivatives of the present invention were calculated."}, "[5]": {"tested_on": "Human Bladder Cancer TSGH cells", "experiment": "MTT assay", "conditions": "72 hr", "method": "as §1, §2"}, "[6]": {"tested_on": "Human breast carcinoma MCF-7 cells", "experiment": "MTT assay", "conditions": "MCF7, 72 hr", "method": "as §1, §2"}, "[7]": {"tested_on": "Human colorectal adenocarcinoma HT-29 cells", "experiment": "MTT assay", "conditions": "72 hr", "method": "as §1, §2"}, "[8]": {"tested_on": "Human hepatoblastoma HepG2 cells", "experiment": "MTT assay", "conditions": "72 hr, read-out: IC50 HepaG2", "method": "as §1, §2"}, "[9]": {"tested_on": "A549 non-small cell lung cancer", "experiment": "MTT assay", "conditions": "Homo sapiens, 72 hr", "method": "as §1, §2"}, "[10]": {"tested_on": "Human prostate carcinoma PC-3 cells", "experiment": "MTT assay", "conditions": "72 hr", "method": "as §1, §2"}, "[11]": {"tested_on": "Human gastric adenocarcinoma AGS cells", "experiment": "MTT assay", "conditions": "72 hr", "method": "as §1, §2"}, "[12]": {"tested_on": "lung carcinoma A549 cells", "experiment": "SRB assay", "conditions": "Homo sapiens, 48 hr", "method": "as §1\n(§3) All cell lines were maintained in RPMI 1640 supplied with 10% fetal bovine serum into 96-well microtiter plates and maintained in a humidified chamber at 37° C. containing 5% CO2. After 24 hr, cell lines in partial wells were fixed in situ with 10% trichloroacetic acid (TCA) to represent a measurement at the time of drug addition (T0). Then, cell lines in other wells were incubated with the benzenesulfonamide derivatives of the present invention for an additional 48 hr, and fixed in situ with 10% TCA to represent a measurement at the time of stopping reaction (Tx). After rinsing the plates with PBS and air-drying, 0.4% sulforhodamine B solution (weight per volume in 1% acetic acid) was added to each well and the plates were incubated for 10 min at room temperature. Unbound sulforhodamine B was removed with 1% acetic acid and the plates were air-dried. Cells bound with sulforhodamine B was subsequently solubilized with 10 mM Tris base (Trizma; Sigma). Cell proliferation was determined by measuring the optical density at 515 nm using a Thermomax microplate reader (Molecular Devices, Sunnyvale, Calif.). The half-inhibition concention (GI50) of the benzenesulfonamide derivatives of the present invention was obtained from the detected optical density.", "remark": "listed apart in the source"}, "[13]": {"tested_on": "Human breast carcinoma MCF-7 cells", "experiment": "SRB assay", "conditions": "MCF7, 48 hr", "method": "as §1, §3", "remark": "listed apart in the source"}, "[14]": {"tested_on": "Human colorectal adenocarcinoma HT-29 cells", "experiment": "SRB assay", "conditions": "48 hr", "method": "as §1, §3", "remark": "listed apart in the source"}, "[15]": {"tested_on": "Human hepatoblastoma HepG2 cells", "experiment": "SRB assay", "conditions": "48 hr", "method": "as §1, §3"}, "[16]": {"tested_on": "Human prostate carcinoma PC-3 cells", "experiment": "SRB assay", "method": "as §1, §3"}, "[17]": {"tested_on": "Human gastric adenocarcinoma AGS cells", "experiment": "SRB assay", "conditions": "48 hr", "method": "as §1, §3"}, "HeLa Cervical cancer [18]": {"tested_on": "HeLa Cervical cancer", "experiment": "SRB assay", "conditions": "Homo sapiens, 48 hr", "method": "as §3"}, "[19]": {"tested_on": "H1299 non-small cell lung cancer", "experiment": "SRB assay", "conditions": "Homo sapiens, NCI-H1299, 48 hr", "method": "as §3"}, "[20]": {"tested_on": "MCF-7/ADR multidrug-resistant breast cancer", "experiment": "SRB assay", "conditions": "Homo sapiens, NCI/ADR-RES", "method": "as §3"}, "HeLa Cervical cancer [21]": {"tested_on": "HeLa Cervical cancer", "experiment": "MTT assay", "conditions": "Homo sapiens, 72 hr", "method": "as §2"}, "COLO-205 Colon cancer": {"tested_on": "COLO-205 Colon cancer", "experiment": "MTT assay", "conditions": "Homo sapiens, 72 hr", "method": "as §2"}, "[22]": {"tested_on": "WSI Normal skin fibroblast", "experiment": "MTT assay", "method": "as §2"}, "[23]": {"tested_on": "WI-38 Normal lung fibroblast", "experiment": "MTT assay", "conditions": "Homo sapiens", "method": "as §2"}, "[24]": {"tested_on": "Human hepatoblastoma HepG2 cells", "experiment": "SRB assay", "conditions": "48 hr", "remark": "listed apart in the source"}, "[25]": {"tested_on": "murine mammary carcinoma cell line 4T1-Luc cells", "experiment": "4T1-Luc cell survival, sulforhodamine B staining", "method": "The murine mammary carcinoma cell line 4T1-Luc cells stably expressing the firefly luciferase gene under the selection of G418 was cultured in RPMI containing 10% fetal calf serum. The cells were maintained at 37° C. with 5% CO2 in air and subcultured twice weekly.\nEach well of 96-well plates was seeded with 2,500 or 5,000 tumor cells, and the tumor cells were incubated in medium with 10% fetal bovine serum or without serum. The tumor cells were treated with 0, 0.01, 0.1, 1, or 10 μM of GM119 for 48 hr. Then, the tumor cells were fixed with 10% of trichloroacetic acid, washed with water, stained with sulforhodamine B. Then, the sample was washed with 1% of acetic acid, and Tris buffer was added into the sample. The absorption of the sample was determined at 515 nm with a Thermomax microplate reader, and repeated for 4 times. The absorption of the cells without drug treatment served as 100% survival, and the survival was calculated and represented by average±standard deviation %."}}}
{"smiles": "COc1ccc(S(=O)(=O)Nc2cccc3c2[nH]c2c(C)ccc(C)c23)cc1", "note": "[Compound 6c, N-(5,8-Dimethyl-9H-carbazol-1-yl)-4-methoxybenzenesulfonamide]", "values": [{"measurement": "IC50", "setting": "[1]", "result": 9000, "unit": "nM"}, {"measurement": "IC50", "setting": "[2]", "result": "> 10000", "unit": "nM"}, {"measurement": "IC50", "setting": "[3]", "result": 10000, "unit": "nM"}, {"measurement": "IC50", "setting": "[4]; Homo sapiens, KB, MTT assay, 72 hr", "result": 800, "unit": "nM"}, {"measurement": "inhibitory activity against KB cells compared with E7070", "setting": "[4]; own MTT value vs literature value", "result": "has higher inhibitory activity against KB cells than E7070"}, {"measurement": "IC50", "setting": "[5]", "result": 500, "unit": "nM"}, {"measurement": "IC50", "setting": "[6]", "result": 240, "unit": "nM"}, {"measurement": "IC50", "setting": "[7]", "result": 400, "unit": "nM"}, {"measurement": "IC50", "setting": "[8]", "result": 400, "unit": "nM"}, {"measurement": "IC50", "setting": "[9]", "result": 1120, "unit": "nM"}, {"measurement": "IC50", "setting": "[10]", "result": 240, "unit": "nM"}, {"measurement": "IC50", "setting": "[11]", "result": 1400, "unit": "nM"}, {"measurement": "GI50", "setting": "[12]", "result": 280, "unit": "nM"}, {"measurement": "GI50", "setting": "[13]", "result": 630, "unit": "nM"}, {"measurement": "GI50", "setting": "[14]", "result": 320, "unit": "nM"}, {"measurement": "GI50", "setting": "[15]", "result": 70, "unit": "nM"}, {"measurement": "GI50", "setting": "[16]; 48 hr", "result": 610, "unit": "nM"}, {"measurement": "GI50", "setting": "[16]; Homo sapiens, PC-3, 48 h", "result": 500, "unit": "nM"}, {"measurement": "IC50", "setting": "[16]; Homo sapiens, PC-3, 48 hr", "result": 1100, "unit": "nM"}, {"measurement": "GI50", "setting": "[17]", "result": 600, "unit": "nM"}, {"measurement": "GI50", "setting": "HeLa Cervical cancer [18]", "result": 190, "unit": "nM"}, {"measurement": "GI50", "setting": "[19]", "result": 460, "unit": "nM"}, {"measurement": "GI50", "setting": "[20]", "result": 390, "unit": "nM"}, {"measurement": "IC50", "setting": "HeLa Cervical cancer [21]", "result": 600, "unit": "nM"}, {"measurement": "IC50", "setting": "COLO-205 Colon cancer", "result": 50, "unit": "nM"}, {"measurement": "IC50", "setting": "[22]", "result": "> 10000", "unit": "nM"}, {"measurement": "IC50", "setting": "[23]", "result": "> 10000", "unit": "nM"}, {"measurement": "IC50", "setting": "[24]", "result": 1000, "unit": "nM"}, {"measurement": "growth of the 4T1 cells", "setting": "[25]; 0.01 μM, 48 hr, medium with or without serum, FIG. 1", "result": "the growth of the 4T1 cells can be inhibited"}, {"measurement": "inhibition of the 4T1 cells", "setting": "[25]; 10 μM, 48 hr, FIG. 1", "result": "the inhibition of the 4T1 cells is apparent"}, {"measurement": "killing of 4T1 cells (FIG. 1 legend)", "setting": "[25]; in vitro assay", "result": "kills the murine mammary carcinoma 4T1 cell"}]}
